Test results reported in ChEMBL document CHEMBL3046802, “7-Piperazinylquinolones with methylene-bridged nitrofuran scaffold as new antibacterial agents” (2013).
Values after ≈ are worked out from the molar mass of the structure shown.

Experiments:
Type in all cases: functional
Escherichia coli = assay: Antibacterial activity against Escherichia coli ATCC 8739 after 18 hrs by agar dilution method; conditions: ATCC 8739, 18 h
Bacillus subtilis = assay: Antibacterial activity against Bacillus subtilis ATCC 6633 after 18 hrs by agar dilution method; conditions: ATCC 6633, 18 h
[1] = system: Staphylococcus epidermidis; assay: Antibacterial activity against Staphylococcus epidermidis ATCC 12228 after 18 hrs by agar dilution method; conditions: ATCC 12228, 18 h
Pseudomonas aeruginosa = assay: Antibacterial activity against Pseudomonas aeruginosa ATCC 9027 after 18 hrs by agar dilution method; conditions: ATCC 9027, 18 h
Staphylococcus aureus = assay: Antibacterial activity against Staphylococcus aureus ATCC 6538 after 18 hrs by agar dilution method; conditions: ATCC 6538, 18 h
Klebsiella pneumoniae = assay: Antibacterial activity against Klebsiella pneumoniae ATCC 10031 after 18 hrs by agar dilution method; conditions: ATCC 10031, 18 h

SMILES	MIC (Escherichia coli)	MIC (Bacillus subtilis)	MIC [1]	MIC (Pseudomonas aeruginosa)	MIC (Staphylococcus aureus)	MIC (Klebsiella pneumoniae)
CCn1cc(C(=O)O)c(=O)c2cc(F)c(N3CCN(Cc4ccc([N+](=O)[O-])o4)CC3)cc21	6.25 µg/mL (≈ 14.1 µM)	12.5 µg/mL (≈ 28.1 µM)	3.13 µg/mL (≈ 7.04 µM)	25 µg/mL (≈ 56.3 µM)	1.56 µg/mL (≈ 3.51 µM)	6.25 µg/mL (≈ 14.1 µM)
O=C(O)c1cn(C2CC2)c2cc(N3CCN(Cc4ccc([N+](=O)[O-])o4)CC3)c(F)cc2c1=O	1.56 µg/mL (≈ 3.42 µM)	0.78 µg/mL (≈ 1.71 µM)	1.56 µg/mL (≈ 3.42 µM)	3.13 µg/mL (≈ 6.86 µM)	0.39 µg/mL (≈ 0.854 µM)	0.39 µg/mL (≈ 0.854 µM)
CCn1cc(C(=O)O)c(=O)c2cc(F)c(N3CCN(Cc4ccc([N+](=O)[O-])o4)CC3)nc21	6.25 µg/mL (≈ 14 µM)	6.25 µg/mL (≈ 14 µM)	3.13 µg/mL (≈ 7.03 µM)	12.5 µg/mL (≈ 28.1 µM)	0.39 µg/mL (≈ 0.876 µM)	3.13 µg/mL (≈ 7.03 µM)
C[C@H]1COc2c(N3CCN(Cc4ccc([N+](=O)[O-])o4)CC3)c(F)cc3c(=O)c(C(=O)O)cn1c23	0.78 µg/mL (≈ 1.65 µM)	0.78 µg/mL (≈ 1.65 µM)	0.39 µg/mL (≈ 0.826 µM)	12.5 µg/mL (≈ 26.5 µM)	1.56 µg/mL (≈ 3.3 µM)	1.56 µg/mL (≈ 3.3 µM)
O=C(O)c1cn(C2CC2)c2cc(N3CCN(Cc4ccc([N+](=O)[O-])cc4)CC3)c(F)cc2c1=O	3.13 µg/mL (≈ 6.71 µM)	3.13 µg/mL (≈ 6.71 µM)	3.13 µg/mL (≈ 6.71 µM)	50 µg/mL (≈ 107 µM)	3.13 µg/mL (≈ 6.71 µM)	12.5 µg/mL (≈ 26.8 µM)
O=C(O)c1cn(C2CC2)c2cc(N3CCNCC3)c(F)cc2c1=O [CIPROFLOXACIN]	0.097 µg/mL (≈ 0.293 µM)	0.195 µg/mL (≈ 0.589 µM)	0.195 µg/mL (≈ 0.589 µM)	0.39 µg/mL (≈ 1.18 µM)	0.195 µg/mL (≈ 0.589 µM)	0.049 µg/mL (≈ 0.148 µM)
C[C@H]1COc2c(N3CCN(C)CC3)c(F)cc3c(=O)c(C(=O)O)cn1c23.C[C@H]1COc2c(N3CCN(C)CC3)c(F)cc3c(=O)c(C(=O)O)cn1c23.O [LEVOFLOXACIN]		0.78 µg/mL	0.39 µg/mL	3.13 µg/mL	0.39 µg/mL	0.39 µg/mL
C[C@H]1COc2c(N3CCNCC3)c(F)cc3c(=O)c(C(=O)O)cn1c23 [N-DESMETHYL LEVOFLOXACIN]		1.56 µg/mL (≈ 4.49 µM)	1.56 µg/mL (≈ 4.49 µM)	> 6.25 µg/mL	3.13 µg/mL (≈ 9.01 µM)	0.39 µg/mL (≈ 1.12 µM)
CCn1cc(C(=O)O)c(=O)c2cc(F)c(N3CCNCC3)cc21 [NORFLOXACIN]	0.195 µg/mL (≈ 0.611 µM)	0.195 µg/mL (≈ 0.611 µM)	0.39 µg/mL (≈ 1.22 µM)	1.56 µg/mL (≈ 4.89 µM)	0.39 µg/mL (≈ 1.22 µM)	0.39 µg/mL (≈ 1.22 µM)

Further lines, results first:

MIC (Escherichia coli)	MIC (Bacillus subtilis)	MIC [1]	MIC (Pseudomonas aeruginosa)	MIC (Staphylococcus aureus)	MIC (Klebsiella pneumoniae)	SMILES
3.13 µg/mL (≈ 6.25 µM)	3.13 µg/mL (≈ 6.25 µM)	1.56 µg/mL (≈ 3.12 µM)	6.25 µg/mL (≈ 12.5 µM)	0.78 µg/mL (≈ 1.56 µM)	1.56 µg/mL (≈ 3.12 µM)	COc1c(N2CCN(Cc3ccc([N+](=O)[O-])o3)C(C)C2)c(F)cc2c(=O)c(C(=O)O)cn(C3CC3)c12 (stereo unspecified)
0.39 µg/mL (≈ 0.819 µM)	0.097 µg/mL (≈ 0.204 µM)	3.13 µg/mL (≈ 6.57 µM)	25 µg/mL (≈ 52.5 µM)	1.56 µg/mL (≈ 3.27 µM)	6.25 µg/mL (≈ 13.1 µM)	CCn1cc(C(=O)O)c(=O)c2cc(F)c(N3CCN(Cc4ccc([N+](=O)[O-])o4)C(C)C3)c(F)c21 (racemic)
0.39 µg/mL (≈ 1.22 µM)	0.195 µg/mL (≈ 0.609 µM)	0.78 µg/mL (≈ 2.44 µM)	1.56 µg/mL (≈ 4.87 µM)	0.39 µg/mL (≈ 1.22 µM)	0.78 µg/mL (≈ 2.44 µM)	CCn1cc(C(=O)O)c(=O)c2cc(F)c(N3CCNCC3)nc21 [ENOXACIN]
1.56 µg/mL (≈ 4.16 µM)	0.78 µg/mL (≈ 2.08 µM)	0.78 µg/mL (≈ 2.08 µM)	0.78 µg/mL (≈ 2.08 µM)	0.78 µg/mL (≈ 2.08 µM)	0.195 µg/mL (≈ 0.519 µM)	COc1c(N2CCNC(C)C2)c(F)cc2c(=O)c(C(=O)O)cn(C3CC3)c12 (stereo unspecified) [GATIFLOXACIN]
